From patent publication US20030187261A1, “Purine derivatives, process for their preparation and use thereof” (priority 2000, published 2003)

How the values were obtained:
CDC2 = biological target: T1, CDC2 (Homo sapiens, UniProt P06493); experiment: p34cdc2 (CDC2) kinase inhibition assay, histone H1 substrate; format: biochemical; details: Table 5, CDC2 activity in cell free system
T1 construct: made in house; host or cells: Sf9 insect cells, baculovirus co-infection

β-adrenergic receptors = experiment: isoproterenol-induced intracellular cAMP synthesis in rat C6 glioma; format: cell-based; details: cAMP induced by 5 μM (−) isoproterenol
Description: Rat C6 glioma (ATCC N° CCL107) was cultivated in monolayer in serum-free chemically defined medium containing Ham's F10/minimal essential medium (1:1 vol/vol), 2 mM L-glutamine, 1% (vol/vol) minimal essential medium vitamins (100×), 1% (vol/vol) minimal essential medium nonessential amino acids (100×), 100 U/ml penicillin, 100 μg/ml streptomycin and 30 nM sodium selenite. Incubation was at 37° C. in a humidified atmosphere. Assays were performed in the logaritmic growth phase at a density of 2.5×10^5 cells/cm^2. Intracellular cAMP synthesis was induced by addition of 5 μM (−) isoproterenol. After 30 min incubation at 37° C. the medium was removed and the cellular amount of cAMP determined using the cAMP-enzyme immunoassay kit of Amersham. The IC50 is determined from a dose-response curve in duplicate. The effect of seven purine-analogs was measured after simultaneous addition with isoproterenol.
As P2Y1-like and A2 purinergic receptors, negatively and positively coupled to adenylate cyclase respectively, are present on rat C6 glioma the modulation of the synthesis of cAMP may be due to inhibition of the activation of β-adrenergic receptors by isoproterenol or to activation of purinergic receptors.

[1] = test system: T-lymphocyte leukemia Molt3 cell line; experiment: cell growth of Molt3 cell line, flow cytometric cell count; format: cell-based, human; details: 96 hours of culture
[2] = test system: adult bone marrow CD34+CD38- cells; experiment: pre-CFU assay; format: cell-based, human; details: 14 day liquid culture, total clonogenic output after secondary methylcellulose culture
Source text: […]. Cells with low-to-medium forward and low side scatter, highly positive green (CD34) fluorescence, and an orange (CD38) fluorescence signal lower than the mean fluorescence of cells labeled with an irrelevant isotype-matched control antibody+2 standard deviations were retained as CD34^+CD38^− cells and used in pre-CFU assays.
Pre-CFU assays were initiated by performing liquid cultures of CD34^+CD38^− cells in duplicate in 96-well flat-bottomed plates in IMDM/10% FCS, 1% bovine serum albumin (BSA), 100 U/ml IL-1, 200 U/ml IL-6, 30 U/ml IL-3 and 100 ng/ml stem cell factor (SCF). Pre-CFU cultures were initiated with 500 CD34^+CD38^− cells/well (200 μl). After 14 days of culture at 37° C. in 7.5% O2 and 5% CO2 in a fully humidified incubator, the number of cells in each well was counted. Subsequently, the cells were harvested, washed three times in IMDM/10% FCS, and plated in duplicate at 500 cells/well (1000 μl) in secondary methylcellulose CFU cultures as described for CFU assays.
Pre-CFU were cultured starting from adult bone marrow CD34^+CD38^− cells, that had been isolated using the FCM cell sorter. Novel compounds were added at different concentrations to the primary 14 day liquid culture. IC50 was calculated from dose-response curves from total clonogenic output after secondary methylcellulose culture (Table 5).

KG1 = experiment: clonogenic output of KG1 in methylcellulose; format: cell-based, human; details: 25 μM, 14 days
Description: Cell lines: Human leukemic cell lines were obtained from the American Type Culture Collection (ATCC, Rockville, Md., USA). They were cultured in Iscove's Modified Dulbecco's Medium (IMDM) supplemented with 10% heat inactivated fetal calf serum (FCS), 200 U/ml penicillin, 200 μg/ml streptomycin and 1 μg/ml amphotericin B. Cells were cultured in a 5% CO2-95% air fully humidified incubator. For effects on clonogenic output, 1000 cells/well were plated in duplicate in methylcellulose (0.9%), supplemented with 20% FCS and cultured for 14 days.
Clonogenic output of KG1 was tested in methylcellulose with 25 μM of some of the novel compounds.

T1 sequence (P06493 whole entry, species assumed): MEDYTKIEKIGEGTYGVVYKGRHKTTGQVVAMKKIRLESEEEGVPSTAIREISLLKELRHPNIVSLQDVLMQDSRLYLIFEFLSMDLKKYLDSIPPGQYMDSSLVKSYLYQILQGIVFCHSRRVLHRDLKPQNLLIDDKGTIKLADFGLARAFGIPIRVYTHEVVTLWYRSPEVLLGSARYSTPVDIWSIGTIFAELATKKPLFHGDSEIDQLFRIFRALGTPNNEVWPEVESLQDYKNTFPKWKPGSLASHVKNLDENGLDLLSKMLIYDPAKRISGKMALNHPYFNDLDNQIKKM
T1 sequence (P14635 whole entry partner, species assumed): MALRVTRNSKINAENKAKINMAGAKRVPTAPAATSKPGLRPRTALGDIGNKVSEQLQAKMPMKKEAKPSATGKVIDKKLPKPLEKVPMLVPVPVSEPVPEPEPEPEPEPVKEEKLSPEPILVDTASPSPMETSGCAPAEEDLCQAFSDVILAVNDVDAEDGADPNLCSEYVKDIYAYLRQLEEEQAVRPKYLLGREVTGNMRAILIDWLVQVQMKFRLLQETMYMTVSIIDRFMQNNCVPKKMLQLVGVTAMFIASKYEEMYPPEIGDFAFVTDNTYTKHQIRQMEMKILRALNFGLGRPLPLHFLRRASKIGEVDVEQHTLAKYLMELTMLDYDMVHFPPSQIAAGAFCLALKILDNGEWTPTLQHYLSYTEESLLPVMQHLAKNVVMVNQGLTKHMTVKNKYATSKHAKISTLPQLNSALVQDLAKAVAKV

| IC50 (CDC2) [µM] | Effect (β-adrenergic receptors; 30 min, rat C6 glioma) | IC50 (β-adrenergic receptors; 30 min, read-out: I50) [µM] | IC50 ([1]; Homo sapiens, MOLT-3) [µM] | IC50 ([2]; Homo sapiens, 336 h) [µM] | Effect: fold activation (β-adrenergic receptors; 50 μM) | IC50 [1] [µM] | IC50 [2] [µM] | Molecule | Colony output vs. control cultures without novel compound (KG1) [%] |
| --- | --- | --- | --- | --- | --- | --- | --- | --- | --- |
| 60 | inhibition | 15 ± 2 | 16 ± 0.8 | > 25 | – | – | – | CCCCCCNc1nc(NC(CO)c2ccccc2)c2ncn(C(C)C)c2n1 (centres unmarked) [P23, 2-(hexylamino)-6-(1-phenyl-2-hydroxyethylamino)-9-isopropylpurine] | 19 |
| 1.5 | – | – | – | – | 1.3-fold activation | 14 ± 1.8 | 3.5 | 2-(3-aminoethylamino)-6-(3,3-dihydroxybenzyl)amino-9-isopropylpurine [P28] | 0 |
